Source: PubChem BioAssay AID256 (DTP/NCI, 2004)
“And” between values parts separate entries of the source, which are not always exact repeats. Equal entries are not always repeated. Toxic doses and inconclusive results are not listed. How the source made its calls: active means survival T/C of 150% or more; inactive means T/C below 125% in these data.

System: CD2F1 mice, L1210 leukemia ip, survival T/C
Assay: NCI In Vivo Anticancer Drug Screen. Data for tumor model L1210 Leukemia (intraperitoneal) in CD2F1 (CDF1) mice
Details: endpoint: mean survival time, higher = longer survival
How it was run: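 Implant tumor; dose compound or vehicle; measure endpoint in both groups; report treated divided by control.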

[1] = dose: 100.0 mg/kg/injection, schedule: Q01DX001 (ip), vehicle: saline with Tween-80
[2] = dose: 200.0 mg/kg/injection, schedule: Q01DX001 (ip), vehicle: saline with Tween-80
[3] = dose: 400.0 mg/kg/injection, schedule: Q01DX001 (ip), vehicle: saline with Tween-80
[4] = dose: 100.0 mg/kg/injection, schedule: Q01DX009 (ip), vehicle: saline with Tween-80
[5] = dose: 100.0 mg/kg/injection, schedule: Q04DX003 (ip), vehicle: saline with Tween-80
[6] = dose: 200.0 mg/kg/injection, schedule: Q04DX003 (ip), vehicle: saline with Tween-80
[7] = dose: 400.0 mg/kg/injection, schedule: Q04DX003 (ip), vehicle: saline with Tween-80

Measured: T/C

CN(C)Cc1ccccc1
inactive: [1] 104 % of control | [2] 110 % of control

CCOC(=O)CC1CCCCC1CC(=O)OCC (stereo not drawn)
inactive: dose: 37.5 mg/kg/injection, schedule: Q01DX009 (ip), vehicle: saline 95 % of control | dose: 75.0 mg/kg/injection, schedule: Q01DX009 (ip), vehicle: saline 98 % of control | dose: 75.0 mg/kg/injection, schedule: Q04DX003 (ip), vehicle: saline 97 % of control | dose: 150.0 mg/kg/injection, schedule: Q01DX009 (ip), vehicle: saline 100 % of control | dose: 150.0 mg/kg/injection, schedule: Q04DX003 (ip), vehicle: saline 103 % of control | dose: 300.0 mg/kg/injection, schedule: Q04DX003 (ip), vehicle: saline 101 % of control

CC1CN(Br)C(=O)N(Br)C1=O (stereo not drawn)
inactive: dose: 75.0 mg/kg/injection, schedule: Q01DX001 (ip), vehicle: saline 102 % of control | dose: 150.0 mg/kg/injection, schedule: Q01DX001 (ip), vehicle: saline 100 % of control

COc1ccc(CCF)cc1
inactive: [1] 110 % of control | [2] 100 % of control | [3] 114 % of control

CC(=O)N[C@H](CO)[C@H](O)c1ccc([N+](=O)[O-])cc1
inactive: dose: 75.0 mg/kg/injection, schedule: Q01DX009 (ip), vehicle: saline with Tween-80 96 % of control | dose: 150.0 mg/kg/injection, schedule: Q01DX009 (ip), vehicle: saline with Tween-80 96 % of control | dose: 300.0 mg/kg/injection, schedule: Q01DX009 (ip), vehicle: saline with Tween-80 95 % of control

CSc1nc(NC(C)C)nc(NC(C)C)n1
inactive: dose: 50.0 mg/kg/injection, schedule: Q01DX009 (ip), vehicle: saline with Tween-80 117 % of control | [4] 109 % of control | dose: 100.0 mg/kg/injection, schedule: Q04DX003 (ip), vehicle: saline 92 % of control | dose: 200.0 mg/kg/injection, schedule: Q01DX009 (ip), vehicle: saline with Tween-80 111 % of control | dose: 200.0 mg/kg/injection, schedule: Q04DX003 (ip), vehicle: saline 103 % of control

O=C(Nc1ccc(Oc2ccc(Cl)c(Cl)c2)c(Cl)c1)Nc1cc(Cl)c(Cl)cc1S(=O)(=O)O
inactive: dose: 100.0 mg/kg/injection, schedule: Q01DX001 (ip), vehicle: saline sonified 96 % of control | [4] 97 % of control | dose: 200.0 mg/kg/injection, schedule: Q01DX001 (ip), vehicle: saline sonified 93 % of control | dose: 400.0 mg/kg/injection, schedule: Q01DX001 (ip), vehicle: saline sonified 96 % of control

CC(=O)OC1CC2C=CCC21 (stereo not drawn)
inactive: [1] 100 % of control | [2] 96 % of control | [3] 96 % of control

OC(C/C(=N\Nc1ccccc1)c1ccc(F)cc1)(C(F)(F)F)C(F)(F)F
inactive: [5] 100 % of control | [6] 98 % of control | [7] 96 % of control

CCCCCCOc1ccc(N=Cc2ccc(N(C)C)cc2)cc1
inactive: dose: 75.0 mg/kg/injection, schedule: Q01DX001 (ip), vehicle: other 93 % of control | dose: 150.0 mg/kg/injection, schedule: Q01DX001 (ip), vehicle: other 94 % of control

c1cc[c]([Sb]([c]2ccccc2)[c]2ccccc2)cc1
inactive: dose: 20.0 mg/kg/injection, schedule: Q04DX003 (ip), vehicle: saline sonified 97 % of control | dose: 40.0 mg/kg/injection, schedule: Q04DX003 (ip), vehicle: saline sonified 94 % of control

CNCc1c[nH]c(=O)[nH]c1=O
inactive: [5] 102 % of control | [6] 98 % of control | [7] 94 % of control

CC(=O)OCC1OC(N2C(=O)C=CC2=O)C(OC(C)=O)C1OC(C)=O (stereo not drawn)
inactive: dose: 1.56 mg/kg/injection, schedule: Q01DX005 (ip), vehicle: water 110 % of control | dose: 3.13 mg/kg/injection, schedule: Q01DX005 (ip), vehicle: water 96 % of control | dose: 6.25 mg/kg/injection, schedule: Q01DX005 (ip), vehicle: water 104 % of control | dose: 12.5 mg/kg/injection, schedule: Q01DX005 (ip), vehicle: water 95 % of control and 102 % of control | dose: 25.0 mg/kg/injection, schedule: Q01DX005 (ip), vehicle: water 106 % of control
